Source: patent US20240092782A1, “TRICYCLIC PESTICIDAL COMPOUNDS” (BASF SE, priority 2021, published 2024)

Experiments:
Format in all cases: in vivo
[1] = system: yellow fever mosquito (Aedes aegypti); test: whole plant or invertebrate; details: 48 h, larval mortality after 2 days, read-out: mortality in comparison with untreated controls
Procedure: Yellow Fever Mosquito (Aedes aegypti)
For evaluating control of yellow fever mosquito (Aedes aegypti) the test unit consisted of 96-well-microtiter plates containing 200 μl of tap water per well and 5-15 freshly hatched A. aegypti larvae. The active compounds were formulated using a solution containing 75% (v/v) water and 25% (v/v) DMSO. Different concentrations of formulated compounds or mixtures were sprayed onto the insect diet at 2.5 μl, using a custom built micro atomizer, at two replications. After application, microtiter plates were incubated at 28+1° C., 80+5% RH for 2 days. Larval mortality was then visually assessed.

[2] = system: boll weevil (Anthonomus grandis); test: Boll weevil (Anthonomus grandis) egg and larval mortality, insect diet microtiter plate; details: 120 h, egg and larval mortality after 5 days, read-out: mortality in comparison with untreated controls
Procedure: Boll Weevil (Anthonomus grandis)
For evaluating control of boll weevil (Anthonomus grandis) the test unit consisted of 96-well-microtiter plates containing an insect diet and 5-10 A. grandis eggs. The compounds were formulated using a solution containing 75% v/v water and 25% v/v DMSO. Different concentrations of formulated compounds were sprayed onto the insect diet at 5 μl, using a custom built micro atomizer, at two replications. After application, microtiter plates were incubated at about 25±1° C. and about 75±5% relative humidity for 5 days. Egg and larval mortality was then visually assessed.

[3] = system: tobacco budworm (Heliothis virescens); test: whole plant or invertebrate; details: 120 h, egg and larval mortality after 5 days, read-out: mortality in comparison with untreated controls
Procedure: Tobacco Budworm (Heliothis virescens)
For evaluating control of tobacco budworm (Heliothis virescens) the test unit consisted of 96-well-microtiter plates containing an insect diet and 15-25 H. virescens eggs. The compounds were formulated using a solution containing 75% v/v water and 25% v/v DMSO. Different concentrations of formulated compounds were sprayed onto the insect diet at 10 μl, using a custom built micro atomizer, at two replications. After application, microtiter plates were incubated at about 28±1° C. and about 80±5% relative humidity for 5 days. Egg and larval mortality was then visually assessed.

[4] = system: Green Peach Aphid (Myzus persicae); test: whole plant or invertebrate; details: 120 h, aphid mortality after 5 days, read-out: mortality in comparison with untreated controls
Procedure: Green Peach Aphid (Myzus persicae)
The 10,000 ppm solution was serially diluted in 100% cyclohexanone to make interim solutions. These served as stock solutions for which final dilutions were made by the Tecan in 50% acetone:50% water (v/v) into 10 or 20 ml glass vials. A nonionic surfactant (Kinetic®) was included in the solution at a volume of 0.01% (v/v). The vials were then inserted into an automated electrostatic sprayer equipped with an atomizing nozzle for application to plants/insects. Bell pepper plants at the first true-leaf stage were infested prior to treatment by placing heavily infested leaves from the main colony on top of the treatment plants. Aphids were allowed to transfer overnight to accomplish an infestation of 30-50 aphids per plant and the host leaves were removed. The infested plants were then sprayed by an automated electrostatic plant sprayer equipped with an atomizing spray nozzle. The plants were dried in the sprayer fume hood, removed, and then maintained in a growth room under fluorescent lighting in a 14:10 light:dark photoperiod at about 25° C. and about 20-40% relative humidity. Aphid mortality on the treated plants, relative to mortality on untreated control plants, was determined after 5 days.

[5] = system: Red Spider Mite (Tetranychus kanzawai); test: Red spider mite (Tetranychus kanzawai) mortality on sprayed cowpea beans; details: 72 hours after treatment, read-out: mortality in comparison with untreated controls
Procedure: Red Spider Mite (Tetranychus kanzawai)
The active compound of formula ( ))s dissolved at the desired concentration in a mixture of 1:1 (vol:vol) distilled water:acetone. Add surfactant (Kinetic) is added at a rate of 0.01% (vol/vol).The test solution is prepared at the day of use. Potted cowpea beans of 4-5 days of age are cleaned with tap water and sprayed with 1-2 ml of the test solution using air driven DeVilbiss® hand atomizer at 20-30 psi (≈1.38 to 2.07 bar). The treated plants are allowed to air dry and afterwards inoculated with 30 or more mites by clipping a cassava leaf section from rearing population. Treated plants are placed inside a holding room at about 25-26° C. and about 65-70% relative humidity. Estimate percent mortality is assessed 72 hours after treatment.

CCS(=O)(=O)c1cc(Br)cnc1-c1nc2cc(C(F)(F)F)n3ncnc3c2n1C [I.2, 8-(5-bromo-3-(ethylsulfonyl)pyridin-2-yl)-9-methyl-5-(trifluoromethyl)-9H-imidazo[4,5-c][1,2,4]triazolo[1,5-a]pyridine]
> 70%: mortality at 10 ppm ([1]; 10 ppm) | mortality at 30 ppm ([2]; 30 ppm) | mortality at 10 ppm ([3]; 10 ppm) | mortality at 10 ppm ([4]; 10 ppm) | mortality at 10 ppm ([5]; 10 ppm)

CCS(=O)(=O)c1cc(Br)ccc1-c1nc2cc(C(F)(F)F)n3ncnc3c2n1C [I.8, 11-(4-bromo-2-ethylsulfonyl-phenyl)-12-methyl-7-(trifluoromethyl)-3,5,6,10,12-pentazatricyclo[7.3.0.02,6]dodeca-1(9),2,4,7,10-pentaene]
> 70%: mortality at 800 ppm ([1]; 800 ppm) | mortality at 800 ppm [2] | mortality at 800 ppm ([3]; 800 ppm) | mortality at 800 ppm ([4]; 800 ppm) | mortality at 800 ppm [5]

CCS(=O)(=O)c1cc(N=S(C)(C)=O)cnc1-c1cn2c(cc(C(F)(F)F)n3ccnc32)n1 [I.24, [5-ethylsulfonyl-6-[7-(trifluoromethyl)-1,3,6,10-tetrazatricyclo[7.3.0.02,6]dodeca-2,4,7,9,11-pentaen-11-yl]-3-pyridyl]imino-dimethyl-oxo-λ6-sulfane]
> 70%: mortality at 800 ppm [2] | mortality at 800 ppm [5]
